Assay results reported in patent US20070054868A1, “Synergistic polyphenol compounds, compositions thereof, and uses thereof” (The Trustees of Columbia University in the City of New York, priority 2005, published 2007).
Entries after “also recorded” stand apart in the source; their conditions may differ.

How the values were obtained:
[1] = obtained in a clinical study; value said to be in the range of the peak; cited from earlier work
[2] = target: T1, EGFR (Homo sapiens, UniProt P00533); assay: Binding of Alexa 488-labeled EGF to the cell surface receptor; conditions: HT29 cells pre-treated with test substance
T1 construct: endogenous in cells; host or cells: HT29 colon cancer cells
Procedure: These effects were detected with as little as […] of EGCG, and within 5 minutes. Phosphorylation of EGFR, ERK1, ERK2, and AKT were suppressed in cells treated with methyl-β-cyclodextrin, which depletes plasma membrane cholesterol. […] In addition, the inhibitory effect of EGCG on phosphorylation of EGFR was not blocked by the addition of cholesterol on the growth medium. These findings provide evidence that EGCG can alter membrane domain organization in colon cancer cells ant that this is not due to cholesterol depletion. It was noted that pre-treatment of the cells with EGCG or Poly E inhibited the binding of Alexa 488-labeled EGF to the cell surface receptor EGFR.

[3] = test system: IGF-1; assay: Production of growth factors in HepG2 cells; assay type: cell-based, human; conditions: 20 μg/mL, listed as EGCG
Procedure: (§1) The cells were treated with […] EGCG at 0, 3, 6, 12, 24 and 48 hours, and cell extracts were examined by Western blot analysis using the respective antibodies, or were examined by semiquantitative RT-PCR analysis using IGFBP-3 or IGF-1 specific primers.
(§2) Using the MTT cell proliferation assay described in Example 21, and substituting HepG2 human liver cancer cells in place of SW837 cells, the effects of EGCG (20 μg/mL), an illustrative Synergistic Polyphenol Compound, on the production of IGF-1, IGF-2 and IGFBP-3 was determined. […] Accordingly, the Synergistic Polyphenol Compounds are useful for treating or preventing liver cancer.

[4] = test system: IGF-2; assay: Production of growth factors in HepG2 cells; assay type: cell-based, human; conditions: 20 μg/mL, listed as EGCG
Procedure: as §1, §2

[5] = test system: IGF-1R proteins; assay: Western blot analysis for IGF in SW837 cells, total receptor; assay type: cell-based, human; conditions: 20 μg/mL, during the time course
Description: Total cellular protein was extracted and equivalent amounts of protein were examined by western blot analysis, as described above in Example 6. Cell lysates were separated by SDS-PAGE using 7.5 to 15% polyacrylamide gels and transferred onto Immobilon-P transfer membranes (Millipore Co., Bedford, Mass.). The primary antibodies for IGF-1R[…](#3022) and p-IGF-1R (#3021) were purchased from Cell Signaling Technology (Beverly, Mass.). The primary antibodies for IGF-1R[…](sc-713) and IGFBP-3 (sc-6003) were purchased from Santa Cruz Biotechnology (Santa Cruz, Calif.). The primary antibodies for IGF-1 (clone Sm1.2) and actin (A2066) were purchased from Upstate Cell Signaling Solutions (Charlottesville, Va.) and Sigma Chemical Co. (St Louis, Mo.), respectively. An antibody to actin was used as a loading control. Anti-mouse IgG (Amersham Pharmacia Biosciences, Piscataway, N.J.), anti-rabbit IgG (Amersham Pharmacia Biosciences), or anti-goat IgG (Santa Cruz Biotechnology) antibodies were used as the secondary antibodies. Each membrane was developed using an ECL-enhanced chemiluminescence system (Amersham Biosciences).

[6] = test system: PGE2; assay: PGE2 production assay (EIA) in SW837 cells; assay type: cell-based, human; conditions: 10, 20 or 40 μg/mL, 18 hours, 20 μM arachidonic acid
Procedure: SW837 human colon cancer cells were plated into 35-mm dishes and grown to 60% confluence. The cells were then treated with EGCG (0, 10, 20, or 40 μg/mL) in serum minus medium containing 20 μM arachidonic acid (Sigma) for 18 hours. The cell free medium was then collected and the amounts of PGE2 released by cells into the medium were measured using an EIA kit (Cayman Chemicals, Ann Arbor, Mich.), according to the manufacturer's instructions. Production of PGE2 was normalized to the protein concentration of the cells.

[7] = test system: COX-2 protein; assay: Western blot analysis in SW837 cells; assay type: cell-based, human; conditions: for cellular level of the COX-2 protein: 20 μg/mL
Description: (§3) Total cellular protein was extracted and equivalent amounts of protein can be determined by western blot analysis using the methods described in Suzui, et al., Cancer Res., 62:3997-4006 (2002). The primary antibodies for several proteins are described in Masuda et al., Clin Cancer Res., 7:4220-4229 (2001); Masuda et al., Clin Cancer Res., 9:3486-3491 (2003); and Shimizu et al., Clin Cancer Res., 11:2735-2746 (2005). The primary antibodies for HER3 (2F12) and COX-2 (PG27) were purchased from Upstate Cell Signaling Solutions (Charlottesville, Va.) and Oxford Biochemical Research (Oxford, Mich.), respectively. To examine the levels of expression of the phosphorylated (i.e. activated) form of the HER3 protein (p-HER3), cellular lysates (1 mg/mL) were incubated with 4 μg anti-HER3 antibody overnight at 4° C. with slow agitation, and immune complexes were then precipitated by adding protein A/G agarose (sc-2003, Santa Cruz Biotechnology, Santa Cruz, Calif.). After incubating for 2 hours at 4° C., the beads were washed with lysis buffer, and bound proteins were eluted into the sample buffer and subjected to western blot analysis, as described above. The p-HER3 protein was then detected by using an anti-phospho-tyrosine antibody (PY-20-HRP, BD Transduction Laboratories, San Diego, Calif.). An antibody to actin was used as a loading control. Each membrane was developed using an ECL-enhanced chemiluminescence system (Amersham Biosciences, Piscataway, N.J.).

[8] = test system: p-ERK; assay: Western blot analysis in SW837 cells; assay type: cell-based, human; conditions: 20 μg/mL, at 12 hours
Description: as §3

[9] = test system: p-HER2; assay: Western blot analysis in SW837 cells; assay type: cell-based, human
Description: as §3

[10] = test system: p-EGFR; assay: Western blot analysis in SW837 cells; assay type: cell-based, human
Description: as §3

[11] = test system: p-Akt; assay: Western blot analysis in SW837 cells; assay type: cell-based, human; conditions: 20 μg/mL, at 6 hours
Description: as §3

[12] = test system: Bcl-xL; assay: Western blot analysis in SW837 cells; assay type: cell-based, human; conditions: 1.0 μg/mL, 96 hours
Description: as §3

Question: For (−)-epigallocatechin gallate, which peak plasma concentration [1] is on record?
Answer: ~1.0 µg/mL

Question: What about the “binding of Alexa 488-labeled EGF to the cell surface receptor EGFR” value [2] of the same substance?
Answer: inhibited

Question: What about the “production of IGF-1” value [3] of the same substance?
Answer: inhibited production; also recorded: decreased the production

Question: And the “production of IGF-2” value [4]?
Answer: inhibited production; also recorded: decreased the production

Question: What about the “levels of the IGF-1R proteins (total)” value [5] of the same substance?
Answer: no significant changes

Question: What about the “levels of PGE2” value [6] of the same substance?
Answer: decrease

Question: What about the “levels of the COX-2 protein” value ([7]; 1.0 μg/mL, 96 hours) of the same substance?
Answer: decrease

Question: And the “cellular level of the COX-2 protein” value ([7]; after 12 to 24 hours)?
Answer: marked decrease

Question: And the “cellular level of the COX-2 protein” value ([7]; at 48 hours)?
Answer: almost undetectable

Question: And the “levels of the p-ERK protein” value [8]?
Answer: marked decreases

Question: And the “levels of the p-HER2 protein” value ([9]; 1.0 μg/mL, 96 hours)?
Answer: decrease

Question: What about the “levels of the p-HER2 protein” value ([9]; 20 μg/mL, within 6 hours) of the same substance?
Answer: marked decrease

Question: What about the “levels of the p-EGFR protein” value ([10]; 1.0 μg/mL, 96 hours) of the same substance?
Answer: decrease

Question: And the “levels of the p-EGFR protein” value ([10]; 20 μg/mL, within 6 hours)?
Answer: marked decrease

Question: And the “levels of the p-Akt protein” value [11]?
Answer: marked decreases

Question: What about the “levels of the Bcl-xL protein” value [12] of the same substance?
Answer: decrease
